The supplement of paper PMC10307832

Assays:
Experiment in all cases: relative viability (nuclei count vs DMSO), 5 days (fraction); higher = more cells survive
CX-5461 + Olaparib = compound: Cc1cnc(CNC(=O)c2c(=O)c3ccc(N4CCCN(C)CC4)nc3n3c2sc2ccccc23)cn1 [CX-5461] + O=C(c1cc(Cc2n[nH]c(=O)c3ccccc23)ccc1F)N1CCN(C(=O)C2CC2)CC1 [Olaparib] (partner 8 µM)
In short: (§1)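 A single step with final 0.05% Triton X-100, 1% formaldehyde and 1 ug/ml Hoechst fixed the cells and stained nuclei 5 days after treatment. Lung cancer cell lines in 1536-well plates had been treated by pin tool the day after seeding with one drug alone or a fixed anchor-drug dose plus five library-drug doses (not always all listed) in √10 steps, and nuclei were counted on 4× images. Relative viability is the ratio of nuclei in treated wells to nuclei in vehicle wells, taken as the median of duplicate plates.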

IMD-0354 + Linsitinib = compound: O=C(Nc1cc(C(F)(F)F)cc(C(F)(F)F)c1)c1cc(Cl)ccc1O [IMD-0354] + C[C@]1(O)C[C@@H](c2nc(-c3ccc4ccc(-c5ccccc5)nc4c3)c3c(N)nccn32)C1 [Linsitinib] (partner 1 µM)
In short: as §1

IMD-0354 + Bortezomib = compound: O=C(Nc1cc(C(F)(F)F)cc(C(F)(F)F)c1)c1cc(Cl)ccc1O [IMD-0354] + CC(C)C[C@H](NC(=O)[C@H](Cc1ccccc1)NC(=O)c1cnccn1)B(O)O [Bortezomib] (partner 0.002 µM)
In short: as §1

CX-5461 + Alpelisib = compound: Cc1cnc(CNC(=O)c2c(=O)c3ccc(N4CCCN(C)CC4)nc3n3c2sc2ccccc23)cn1 [CX-5461] + Cc1nc(NC(=O)N2CCC[C@H]2C(N)=O)sc1-c1ccnc(C(C)(C)C(F)(F)F)c1 [Alpelisib] (partner 2 µM)
In short: as §1

Cell Line | relative viability (CX-5461 + Olaparib; first compound 0.01 µM) | relative viability (CX-5461 + Olaparib; first compound 0.03162 µM) | relative viability (CX-5461 + Olaparib; first compound 0.1 µM) | relative viability (CX-5461 + Olaparib; first compound 0.3162 µM) | relative viability (CX-5461 + Olaparib; first compound 1 µM) | relative viability (IMD-0354 + Linsitinib; first compound 0.04 µM) | relative viability (IMD-0354 + Linsitinib; first compound 0.1265 µM) | relative viability (IMD-0354 + Linsitinib; first compound 0.4 µM) | relative viability (IMD-0354 + Linsitinib; first compound 1.265 µM) | relative viability (IMD-0354 + Linsitinib; first compound 4 µM) | relative viability (IMD-0354 + Bortezomib; first compound 0.04 µM) | relative viability (IMD-0354 + Bortezomib; first compound 0.1265 µM) | relative viability (IMD-0354 + Bortezomib; first compound 0.4 µM) | relative viability (IMD-0354 + Bortezomib; first compound 1.265 µM) | relative viability (IMD-0354 + Bortezomib; first compound 4 µM) | relative viability (CX-5461 + Alpelisib; first compound 0.01 µM) | relative viability (CX-5461 + Alpelisib; first compound 0.03162 µM) | relative viability (CX-5461 + Alpelisib; first compound 0.1 µM) | relative viability (CX-5461 + Alpelisib; first compound 1 µM) | relative viability (CX-5461 + Alpelisib; first compound 0.3162 µM)
NCI-H322M | 0.761 | 0.773 | 0.691 | 0.5 | 0.511 | 0.973 | 0.909 | 0.793 | 1.09 | 0.319 | 1.28 | 1.35 | 1.12 | 1.43 | 0.264 | 0.813 | 0.938 | 0.846 | 0.807 | 
NCI-H1299 | 0.979 | 0.982 | 0.973 | 1 | 0.891 | 0.933 | 0.895 | 0.839 | 0.168 | 0.158 | 0.938 | 0.965 | 0.841 | 0.438 | 0.193 | 1.04 | 1.04 | 1.08 | 0.992 | 1.1
NCI-H2228 | 0.75 | 0.773 | 0.518 | 0.55 | 0.188 | 0.563 | 0.795 | 0.544 | 0.167 | 0.409 | 0.946 | 0.848 | 0.653 | 0.362 | 0.258 | 0.709 | 0.884 | 0.504 | 0.234 | 0.591
IA-LM | 0.838 | 0.83 | 0.807 | 0.753 | 0.444 | 0.653 | 0.486 | 0.745 | 0.0945 | 0.16 | 0.866 | 0.977 | 0.76 | 0.102 | 0.121 | 0.873 | 0.715 | 0.593 | 0.316 | 0.837
NCI-H647 | 0.703 | 0.721 | 0.415 | 0.552 | 0.0876 | 1.36 | 1.1 | 0.515 | 0.276 | 0.158 | 1.15 | 1.08 | 0.439 | 0.169 | 0.128 | 1.29 | 1.22 | 1.06 | 0.211 | 1.27
NCI-H2085 | 0.772 | 0.783 | 0.845 | 0.787 | 0.736 | 0.786 | 0.976 | 0.687 | 0.497 | 0.278 | 1.03 | 1.09 | 0.757 | 0.491 | 0.386 | 0.965 | 0.935 | 0.96 | 0.853 | 1.02
NCI-H727 | 0.713 | 0.704 | 0.762 | 0.837 | 0.763 | 0.161 | 0.257 | 0.281 | 0.206 | 0.233 | 0.841 | 0.923 | 0.532 | 0.38 | 0.359 | 0.606 | 0.597 | 0.547 | 0.592 | 0.611
NCI-H441 | 0.553 | 0.664 | 0.478 | 0.588 | 0.448 | 0.485 | 0.659 | 0.31 | 0.234 | 0.22 |  | 0.848 | 0.218 | 0.15 | 0.0844 | 0.76 | 0.876 | 0.694 | 0.438 | 0.727
LOU-NH91 | 0.973 | 0.992 | 0.901 | 0.524 | 0.704 | 0.945 | 0.989 | 0.652 | 0.317 | 0.251 | 0.5 | 0.498 | 0.492 | 0.303 | 0.319 | 0.812 | 0.739 | 0.703 | 0.64 | 0.677
NCI-H3122 | 0.695 | 0.653 | 0.615 | 0.667 | 0.617 | 1.06 | 1.12 | 0.742 | 0.573 | 0.15 | 0.975 | 1.06 | 0.927 | 0.231 | 0.172 | 0.836 | 0.951 | 0.762 | 0.677 | 0.773
NCI-H460 | 0.463 | 0.451 | 0.286 | 0.39 | 0.0729 | 1.2 | 0.709 | 0.278 | 0.0367 | 0.0126 | 0.893 | 1.15 | 0.18 | 0.0575 | 0.0265 | 0.484 | 0.489 | 0.0913 | 0.0154 | 0.402
NCI-H650 | 0.369 | 0.399 | 0.399 | 0.329 | 0.337 | 1.01 | 0.911 | 0.505 | 0.249 | 0.223 | 0.413 | 0.748 | 0.606 | 0.49 | 0.355 | 1.1 | 1.16 | 1.18 | 0.977 | 1.16
NCI-H661 | 0.832 | 0.754 | 0.662 | 0.602 | 0.534 | 0.65 | 0.632 | 0.57 | 0.532 | 0.251 | 0.968 | 0.718 | 0.719 | 0.925 | 0.276 | 0.805 | 0.674 | 0.876 | 0.588 | 
NCI-H1734 | 0.662 | 0.67 | 0.633 | 0.553 | 0.511 | 1.04 | 0.936 | 0.513 | 0.596 | 0.231 | 1.22 | 1.17 | 0.385 | 0.211 | 0.259 | 0.772 | 0.789 | 0.665 | 0.615 | 0.559
LXF-289 | 1.03 | 1.19 | 1.05 |  | 0.953 | 1.04 | 0.932 | 0.768 | 0.459 | 0.108 | 1.03 | 0.833 | 0.757 | 0.291 | 0.131 | 1.03 | 1.07 | 1.06 | 1.02 | 0.916
H3255 | 0.558 | 0.543 | 0.578 | 0.531 | 0.497 | 0.931 | 0.916 | 0.509 | 0.314 | 0.237 | 0.804 | 0.9 | 0.509 | 0.22 | 0.27 | 0.763 | 0.819 | 0.727 | 0.73 | 0.403
